According to US20110319464A1, “METHODS FOR TREATING BENIGN PROSTATIC HYPERPLASIA” (KISSEI PHARMACEUTICAL CO., LTD., priority 2007, published 2011):
Read-outs that look alike come from different tables or passages of the source.

Tests used:
[1] = clinical; details: male, human
[2] = Pharmacokinetic Study on Silodosin (Study US011), once daily for seven days, fed state; details: for Cmax: Day 7, mean (SD)
[3] = test system: symptoms of BPH; test: Study B: 4 mg Silodosin Twice Daily (KMD-303), Japanese Phase 3 Study; assay type: in vivo, human; details: 4 mg twice daily
Method: Safety was assessed by monitoring adverse events, clinical laboratory measurements, vital signs, and physical exams. […] In addition, the results for IPSS/AUASS for studies A, B, D and E are illustrated in FIGS. 3 to 6, respectively, and the results for Qmax for studies A, B, D and E are illustrated in FIGS. 7 to 10, respectively.

[4] = test system: symptoms associated with BPH; test: Efficacy Studies on Silodosin, studies A-E compared (once daily vs twice daily); assay type: in vivo, human; details: Tables 6 and 7
Text: (§1) In addition, the results for IPSS/AUASS for studies A, B, D and E are illustrated in FIGS. 3 to 6, respectively, and the results for Qmax for studies A, B, D and E are illustrated in FIGS. 7 to 10, respectively.

[5] = test system: LUTS associated with benign prostatic hyperplasia; details: 4 mg silodosin twice daily; cited from earlier work
[6] = test system: symptoms of BPH; test: Study A: 4 mg Silodosin Twice Daily (KMD-202), Japanese Phase 2 Study; assay type: in vivo, human; details: 4 mg twice daily
Text: Patients were males who were at least 50 years of age and who had at least two of the following three variables classified as moderate, or at least one variable classified as severe: IPSS/AUASS, Qmax and QoL. In addition, the results for IPSS/AUASS for studies A, B, D and E are illustrated in FIGS. 3 to 6, respectively, and the results for Qmax for studies A, B, D and E are illustrated in FIGS. 7 to 10, respectively.

[7] = test system: symptoms of BPH; test: Study D: 8 mg Silodosin Once Daily (SI04009), U.S. Phase 3 Study; assay type: in vivo, human; details: 8 mg once daily
Text: as §1

[8] = test system: symptoms of BPH; test: Study E: 8 mg Silodosin Once Daily (SI04010), U.S. Phase 3 Study; assay type: in vivo, human; details: 8 mg once daily
Text: as §1

[9] = Pharmacokinetic Study on Silodosin (Study 98364); assay type: in vivo; details: human, plasma, 4 mg; for concentration at 2 h: Day 7, 2 h; for concentration at 3 h: Day 7, 3 h; for concentration at 4 h: Day 7, 4 h; for concentration at 5 h: Day 7, 5 h; for concentration at 6 h: Day 7, 6 h; for concentration at 8 h: Day 7, 8 h; for concentration at 0 h: Day 7, 0 h (t0); for concentration at 0.5 h: Day 7, 0.5 h; for concentration at 1 h: Day 7, 1 h; for concentration at 12 h: Day 7, 12 h; for concentration at 24 h: Day 7, 24 h
Text: The remaining two subjects in each dosing cohort received placebo.

[10] = immediate-release dosage form once daily, steady state
[11] = 4 mg once daily 7 days, individual subjects, read-out: Blood Plasma Concentrations
[12] = male, 4 mg once daily 7 days, mean, read-out: Blood Plasma Concentrations
[13] = male, 4 mg twice daily 7 days (simulated from Table 1a), read-out: Estimated Blood Plasma Concentrations

SMILES: C[C@H](Cc1cc2c(c(C(N)=O)c1)N(CCCO)CC2)NCCOc1ccccc1OCC(F)(F)F [Silodosin]
- concentration at 12 h ([1]; in vivo, 8 mg): 9.45 ng/mL
- Cmax ([1]; plasma, 4 mg): 27.6 ng/mL
- Tmax ([1]; plasma, 4 mg): 2 h
- concentration at 0.3 h ([1]; plasma, 4 mg): 0 ng/mL
- concentration at 8 h ([1]; plasma, 4 mg): 4.83 ng/mL
- concentration at 12.25 h ([1]; plasma, 4 mg): 1.8 ng/mL
- concentration at 13 h ([1]; plasma, 4 mg): 9.77 ng/mL
- concentration at 14 h ([1]; plasma, 4 mg): 31.5 ng/mL
- concentration at 15 h ([1]; plasma, 4 mg): 32.5 ng/mL
- concentration at 18 h ([1]; plasma, 4 mg): 7.89 ng/mL
- concentration at 20 h ([1]; plasma, 4 mg): 5.93 ng/mL
- half-life ([1]; plasma, 4 mg): 10.7 h
- Cmax ([1]; plasma, 8 mg): 63.2 ng/mL
- Tmax ([1]; plasma, 8 mg): 1.5 h
- concentration at 145.5 h ([1]; plasma, 8 mg): 67.9 ng/mL
- half-life ([1]; plasma, 8 mg): 11.2 h
- concentration at 2 h ([1]; plasma, oral, 8 mg): 54.6 ng/mL
- concentration at 3 h ([1]; plasma, oral, 8 mg): 42.8 ng/mL
- concentration at 4 h ([1]; plasma, oral, 8 mg): 33.2 ng/mL
- concentration at 6 h ([1]; plasma, oral, 8 mg): 18.5 ng/mL
- AUC ([2]; 4 mg once daily, Day 1, mean): 169.0 ng/mL
- Mean Tmax ([2]; 4 mg once daily, Day 7): 3.0 h
- AUC ([2]; 4 mg once daily, Day 7, mean): 171 ng/mL
- t ½ ([2]; 4 mg once daily, Day 7, mean): 12.5 h
- Cmax ([2]; 4 mg once daily): 37.2 (18.7) ng/ml
- AUC ([2]; 8 mg once daily, Day 1, mean): 413.0 ng/mL
- AUC ([2]; 8 mg once daily, Day 7, mean): 396 ng/mL
- t ½ ([2]; 8 mg once daily, Day 7, mean): 10.6 h
- Cmax ([2]; 8 mg once daily): 73.4 (32.4) ng/ml
- time after administration at which Cmax is reached [2, 10]: about 2 hours
- time after administration at which plasma concentration falls to near baseline [2, 10]: about 12 hours
- Incidence of Adverse Events: Dizziness [3]: 2.3 % of patients
- Incidence of Adverse Events: Orthostatic Hypotension [3]: 3.4 % of patients
- Incidence of Adverse Events: Syncope [3]: 0 % of patients
- IPSS/AUASS baseline value ([3]; Week 0): 17.1
- Maximum Flow Rate baseline value ([3]; Week 0): 9.89 mL/s
- Mean Change From Baseline (CFB) in IPSS/AUASS ([3]; Week 1): −3.4
- Mean Change From Baseline (CFB) in IPSS/AUASS ([3]; Week 2): −4.9
- Mean Change From Baseline (CFB) in Maximum Flow Rate ([3]; Week 2): 2.23 mL/s
- Mean Change From Baseline (CFB) in IPSS/AUASS ([3]; Week 4): −6.3
- Mean Change From Baseline (CFB) in Maximum Flow Rate ([3]; Week 4): 2.18 mL/s
- Mean Change From Baseline (CFB) in IPSS/AUASS ([3]; Week 8): −7.7
- Mean Change From Baseline (CFB) in Maximum Flow Rate ([3]; Week 8): 2.38 mL/s
- Mean Change From Baseline (CFB) in IPSS/AUASS ([3]; Week 12): −8.9
- Mean Change From Baseline (CFB) in Maximum Flow Rate ([3]; Week 12): 2.33 mL/s
- mean changes in IPSS/AUASS and Qmax, 8 mg once daily compared with 4 mg twice daily [4]: comparable
- efficacy in treating LUTS associated with BPH compared with 0.2 mg tamsulosin once daily [5]: comparable efficacy
- Incidence of Adverse Events: Dizziness [6]: 2.2 % of patients
- Incidence of Adverse Events: Orthostatic Hypotension [6]: 1.1 % of patients
- Incidence of Adverse Events: Syncope [6]: 0 % of patients
- IPSS/AUASS baseline value ([6]; Week 0): 18.7
- Maximum Flow Rate baseline value ([6]; Week 0): 10.70 mL/s
- Mean Change From Baseline (CFB) in IPSS/AUASS ([6]; Week 2): −5.6
- Mean Change From Baseline (CFB) in IPSS/AUASS ([6]; Week 4): −6.6
- Mean Change From Baseline (CFB) in Maximum Flow Rate ([6]; Week 4): 1.31 mL/s
- Incidence of Adverse Events: Dizziness [7]: 2.6 % of patients
- Incidence of Adverse Events: Orthostatic Hypotension [7]: 2.6 % of patients
- Incidence of Adverse Events: Syncope [7]: 0 % of patients
- Mean Change From Baseline (CFB) in Maximum Flow Rate ([7]; 2-6 hrs after 1st dose): 2.7 mL/s
- IPSS/AUASS baseline value ([7]; Week 0): 21.5
- Maximum Flow Rate baseline value ([7]; Week 0): 9.0 mL/s
- Mean Change From Baseline (CFB) in IPSS/AUASS ([7]; Week 0.5): −3.9
- Mean Change From Baseline (CFB) in IPSS/AUASS ([7]; Week 1): −4.5
- Mean Change From Baseline (CFB) in Maximum Flow Rate ([7]; Week 1): 2.2 mL/s
- Mean Change From Baseline (CFB) in IPSS/AUASS ([7]; Week 2): −5.3
- Mean Change From Baseline (CFB) in Maximum Flow Rate ([7]; Week 2): 2.6 mL/s
- Mean Change From Baseline (CFB) in IPSS/AUASS ([7]; Week 4): −5.9
- Mean Change From Baseline (CFB) in Maximum Flow Rate ([7]; Week 4): 2.4 mL/s
- Mean Change From Baseline (CFB) in IPSS/AUASS ([7]; Week 12): −6.7
- Mean Change From Baseline (CFB) in Maximum Flow Rate ([7]; Week 12): 2.1 mL/s
- Incidence of Adverse Events: Dizziness [8]: 3.9 % of patients
- Incidence of Adverse Events: Orthostatic Hypotension [8]: 2.6 % of patients
- Mean Change From Baseline (CFB) in Maximum Flow Rate ([8]; 2-6 hrs after 1st dose): 2.9 mL/s
- IPSS/AUASS baseline value ([8]; Week 0): 21.2
- Maximum Flow Rate baseline value ([8]; Week 0): 8.4 mL/s
- Mean Change From Baseline (CFB) in IPSS/AUASS ([8]; Week 0.5): −4.4
- Mean Change From Baseline (CFB) in IPSS/AUASS ([8]; Week 1): −5.0
- Mean Change From Baseline (CFB) in Maximum Flow Rate ([8]; Week 1): 2.9 mL/s
- Mean Change From Baseline (CFB) in IPSS/AUASS ([8]; Week 2): −5.6
- Mean Change From Baseline (CFB) in Maximum Flow Rate ([8]; Week 2): 2.9 mL/s
- Mean Change From Baseline (CFB) in IPSS/AUASS ([8]; Week 4): −6.2
- Mean Change From Baseline (CFB) in Maximum Flow Rate ([8]; Week 4): 2.7 mL/s
- Mean Change From Baseline (CFB) in IPSS/AUASS ([8]; Week 12): −6.6
- Mean Change From Baseline (CFB) in Maximum Flow Rate ([8]; Week 12): 3.1 mL/s
- Incidence of Adverse Events: Syncope ([8]; one subject, using excluded medication Prazosin): 0.4^1 % of patients
- concentration at 2 h [9, 11]: 35.3 ng/mL
- concentration at 3 h [9, 11]: 24.4 ng/mL
- concentration at 4 h [9, 11]: 16.6 ng/mL
- concentration at 5 h [9, 11]: 13.3 ng/mL
- concentration at 6 h [9, 11]: 8.9 ng/mL
- concentration at 8 h [9, 11]: 6.14 ng/mL
- concentration at 0 h [9, 12]: 4.63 ng/mL
- concentration at 0.5 h [9, 12]: 5.57 ng/mL
- concentration at 1 h [9, 12]: 21.2 ng/mL
- concentration at 2 h [9, 12]: 31.5 ng/mL
- concentration at 3 h [9, 12]: 18.4 ng/mL
- concentration at 4 h [9, 12]: 13 ng/mL
- concentration at 5 h [9, 12]: 10.3 ng/mL
- concentration at 6 h [9, 12]: 7.26 ng/mL
- concentration at 8 h [9, 12]: 5.45 ng/mL
- concentration at 12 h [9, 12]: 3.31 ng/mL
- concentration at 24 h [9, 12]: 2.01 ng/mL
- concentration at […] ([9]; male, 4 mg once daily 7 days, Day 7, […], mean, read-out: Blood Plasma Concentrations): 4.67 ng/mL
- concentration at 0 h [9, 13]: 4.63 ng/mL
- concentration at 0.5 h [9, 13]: 5.57 ng/mL
- concentration at 1 h [9, 13]: 21.2 ng/mL
- concentration at 2 h [9, 13]: 31.5 ng/mL
- concentration at 3 h [9, 13]: 18.4 ng/mL
- concentration at 4 h [9, 13]: 13 ng/mL
- concentration at 5 h [9, 13]: 10.3 ng/mL
- concentration at 6 h [9, 13]: 7.26 ng/mL
- concentration at 8 h [9, 13]: 5.45 ng/mL
- concentration at 12 h [9, 13]: 3.31 ng/mL
- concentration at 12.25 h ([9]; male, 4 mg twice daily 7 days (simulated from Table 1a), Day 7, 12.25 h, read-out: Estimated Blood Plasma Concentrations): 4.67 ng/mL
- concentration at 13 h ([9]; male, 4 mg twice daily 7 days (simulated from Table 1a), Day 7, 13 h, read-out: Estimated Blood Plasma Concentrations): 21.2 ng/mL
- concentration at 14 h ([9]; male, 4 mg twice daily 7 days (simulated from Table 1a), Day 7, 14 h, read-out: Estimated Blood Plasma Concentrations): 31.5 ng/mL
- concentration at 15 h ([9]; male, 4 mg twice daily 7 days (simulated from Table 1a), Day 7, 15 h, read-out: Estimated Blood Plasma Concentrations): 18.4 ng/mL
- concentration at 16 h ([9]; male, 4 mg twice daily 7 days (simulated from Table 1a), Day 7, 16 h, read-out: Estimated Blood Plasma Concentrations): 13 ng/mL
- concentration at 17 h ([9]; male, 4 mg twice daily 7 days (simulated from Table 1a), Day 7, 17 h, read-out: Estimated Blood Plasma Concentrations): 10.3 ng/mL
- concentration at 18 h ([9]; male, 4 mg twice daily 7 days (simulated from Table 1a), Day 7, 18 h, read-out: Estimated Blood Plasma Concentrations): 4.63 ng/mL
- concentration at 20 h ([9]; male, 4 mg twice daily 7 days (simulated from Table 1a), Day 7, 20 h, read-out: Estimated Blood Plasma Concentrations): 4.67 ng/mL
- concentration at 24 h [9, 13]: 5.57 ng/mL
